Laboratory results as given in publication PMC4134498 (British Journal of Cancer, 2014).
“Also recorded” adds a separate entry of the source. Marks after values point to notes of the source that are not given here.

Assays:
[1] = tested on: patients with advanced solid tumours; assay: Phase I study of olaparib capsules plus PLD; assay type: in vivo
[2] = continuous dosing, ref Mateo et al, 2013; cited from earlier work
[3] = all olaparib cohorts + PLD 40 mg m^−2, Total (n=44)
[4] = olaparib 50 mg bid 7 day + PLD 40 mg m^−2 (n=3)
[5] = olaparib 100 mg bid 7 day + PLD 40 mg m^−2 (n=3)
[6] = olaparib 100 mg bid 28 day + PLD 40 mg m^−2 (n=4)
[7] = olaparib 200 mg bid 7 day + PLD 40 mg m^−2 (n=3)
[8] = olaparib 200 mg bid 28 day + PLD 40 mg m^−2 (n=7)
[9] = olaparib 400 mg bid 7 day + PLD 40 mg m^−2 (n=12)
[10] = olaparib 400 mg bid 28 day + PLD 40 mg m^−2 (n=12)
[11] = olaparib + PLD, all cohorts (n=2)
[12] = olaparib + PLD, all cohorts, n=44

**Q.** With `O=C(c1cc(Cc2n[nH]c(=O)c3ccccc23)ccc1F)N1CCN(C(=O)C2CC2)CC1` [olaparib] as the compound, how does the “Anorexia, patients with grade ⩾3 AE” value [1, 3] read?
**A.** 2 (5) n (%)

**Q.** And the “Anorexia, patients with treatment-related AE” value [1, 3]?
**A.** 12 (27) n (%)

**Q.** What about the “Asthenia, patients with grade ⩾3 AE” value [1, 3] of the same compound?
**A.** 1 (2) n (%)

**Q.** And the “Asthenia, patients with treatment-related AE” value [1, 3]?
**A.** 21 (48) n (%)

**Q.** What about the “Decreased neutrophil count, patients with grade ⩾3 AE” value [1, 3] of the same compound?
**A.** 9 (20) n (%)

**Q.** And the “Decreased neutrophil count, patients with treatment-related AE” value [1, 3]?
**A.** 13 (30) n (%)

**Q.** And the “Nausea, patients with grade ⩾3 AE” value [1, 3]?
**A.** 5 (11) n (%)

**Q.** And the “Nausea, patients with treatment-related AE” value [1, 3]?
**A.** 28 (64) n (%)

**Q.** And the “PPES, patients with grade ⩾3 AE” value [1, 3]?
**A.** 1 (2) n (%)

**Q.** And the “PPES, patients with treatment-related AE” value [1, 3]?
**A.** 11 (25) n (%)

**Q.** And the “Stomatitis, patients with grade ⩾3 AE” value [1, 3]?
**A.** 7 (16) n (%)

**Q.** And the “Stomatitis, patients with treatment-related AE” value [1, 3]?
**A.** 32 (73) n (%)

**Q.** And the “Vomiting, patients with grade ⩾3 AE” value [1, 3]?
**A.** 1 (2) n (%)

**Q.** And the “Vomiting, patients with treatment-related AE” value [1, 3]?
**A.** 13 (30) n (%)

**Q.** And the “Asthenia, patients with treatment-related AE” value [1, 4]?
**A.** 2 n

**Q.** And the “Decreased neutrophil count, patients with grade ⩾3 AE” value [1, 4]?
**A.** 2 n

**Q.** And the “Decreased neutrophil count, patients with treatment-related AE” value [1, 4]?
**A.** 2 n

**Q.** What about the “Nausea, patients with treatment-related AE” value [1, 4] of the same compound?
**A.** 3 n

**Q.** And the “Stomatitis, patients with treatment-related AE” value [1, 4]?
**A.** 3 ^b n

**Q.** And the “Asthenia, patients with treatment-related AE” value [1, 5]?
**A.** 1 n

**Q.** And the “Decreased neutrophil count, patients with grade ⩾3 AE” value [1, 5]?
**A.** 3 n

**Q.** What about the “Decreased neutrophil count, patients with treatment-related AE” value [1, 5] of the same compound?
**A.** 3 n

**Q.** And the “Nausea, patients with grade ⩾3 AE” value [1, 5]?
**A.** 1 n

**Q.** What about the “Nausea, patients with treatment-related AE” value [1, 5] of the same compound?
**A.** 2 n

**Q.** And the “Stomatitis, patients with grade ⩾3 AE” value [1, 5]?
**A.** 2 ^c n

**Q.** And the “Stomatitis, patients with treatment-related AE” value [1, 5]?
**A.** 3 n

**Q.** And the “Vomiting, patients with treatment-related AE” value [1, 5]?
**A.** 1 n

**Q.** What about the “Anorexia, patients with grade ⩾3 AE” value [1, 6] of the same compound?
**A.** 1 n

**Q.** What about the “Anorexia, patients with treatment-related AE” value [1, 6] of the same compound?
**A.** 1 n

**Q.** What about the “Asthenia, patients with treatment-related AE” value [1, 6] of the same compound?
**A.** 2 n

**Q.** And the “Decreased neutrophil count, patients with grade ⩾3 AE” value [1, 6]?
**A.** 1 n

**Q.** And the “Decreased neutrophil count, patients with treatment-related AE” value [1, 6]?
**A.** 2 n

**Q.** What about the “Nausea, patients with treatment-related AE” value [1, 6] of the same compound?
**A.** 2 n

**Q.** What about the “Stomatitis, patients with treatment-related AE” value [1, 6] of the same compound?
**A.** 2 n

**Q.** What about the “Asthenia, patients with treatment-related AE” value [1, 7] of the same compound?
**A.** 2 n

**Q.** What about the “Decreased neutrophil count, patients with treatment-related AE” value [1, 7] of the same compound?
**A.** 1 n

**Q.** What about the “Nausea, patients with treatment-related AE” value [1, 7] of the same compound?
**A.** 2 n

**Q.** And the “PPES, patients with treatment-related AE” value [1, 7]?
**A.** 1 n

**Q.** And the “Stomatitis, patients with treatment-related AE” value [1, 7]?
**A.** 2 n

**Q.** And the “Anorexia, patients with grade ⩾3 AE” value [1, 8]?
**A.** 1 n

**Q.** What about the “Anorexia, patients with treatment-related AE” value [1, 8] of the same compound?
**A.** 3 n

**Q.** And the “Asthenia, patients with treatment-related AE” value [1, 8]?
**A.** 2 n

**Q.** And the “Decreased neutrophil count, patients with grade ⩾3 AE” value [1, 8]?
**A.** 1 n

**Q.** What about the “Decreased neutrophil count, patients with treatment-related AE” value [1, 8] of the same compound?
**A.** 1 n

**Q.** What about the “Nausea, patients with treatment-related AE” value [1, 8] of the same compound?
**A.** 3 n

**Q.** And the “PPES, patients with treatment-related AE” value [1, 8]?
**A.** 2 n

**Q.** And the “Stomatitis, patients with grade ⩾3 AE” value [1, 8]?
**A.** 1 n

**Q.** What about the “Stomatitis, patients with treatment-related AE” value [1, 8] of the same compound?
**A.** 5 n

**Q.** What about the “Vomiting, patients with treatment-related AE” value [1, 8] of the same compound?
**A.** 3 n

**Q.** What about the “Anorexia, patients with treatment-related AE” value [1, 9] of the same compound?
**A.** 4 n

**Q.** And the “Asthenia, patients with grade ⩾3 AE” value [1, 9]?
**A.** 1 n

**Q.** And the “Asthenia, patients with treatment-related AE” value [1, 9]?
**A.** 6 n

**Q.** And the “Decreased neutrophil count, patients with grade ⩾3 AE” value [1, 9]?
**A.** 1 n

**Q.** And the “Decreased neutrophil count, patients with treatment-related AE” value [1, 9]?
**A.** 2 n

**Q.** And the “Nausea, patients with grade ⩾3 AE” value [1, 9]?
**A.** 4 n

**Q.** And the “Nausea, patients with treatment-related AE” value [1, 9]?
**A.** 8 n

**Q.** And the “PPES, patients with treatment-related AE” value [1, 9]?
**A.** 4 n

**Q.** What about the “Stomatitis, patients with grade ⩾3 AE” value [1, 9] of the same compound?
**A.** 2 n

**Q.** What about the “Stomatitis, patients with treatment-related AE” value [1, 9] of the same compound?
**A.** 6 n

**Q.** What about the “Vomiting, patients with grade ⩾3 AE” value [1, 9] of the same compound?
**A.** 1 n

**Q.** What about the “Vomiting, patients with treatment-related AE” value [1, 9] of the same compound?
**A.** 6 n

**Q.** What about the “Anorexia, patients with treatment-related AE” value [1, 10] of the same compound?
**A.** 4 n

**Q.** And the “Asthenia, patients with treatment-related AE” value [1, 10]?
**A.** 6 n

**Q.** And the “Decreased neutrophil count, patients with grade ⩾3 AE” value [1, 10]?
**A.** 1 n

**Q.** What about the “Decreased neutrophil count, patients with treatment-related AE” value [1, 10] of the same compound?
**A.** 2 n

**Q.** What about the “Nausea, patients with treatment-related AE” value [1, 10] of the same compound?
**A.** 8 n

**Q.** What about the “PPES, patients with grade ⩾3 AE” value [1, 10] of the same compound?
**A.** 1 n

**Q.** And the “PPES, patients with treatment-related AE” value [1, 10]?
**A.** 4 n

**Q.** What about the “Stomatitis, patients with grade ⩾3 AE” value [1, 10] of the same compound?
**A.** 2 n

**Q.** What about the “Stomatitis, patients with treatment-related AE” value [1, 10] of the same compound?
**A.** 11 n

**Q.** What about the “Vomiting, patients with treatment-related AE” value [1, 10] of the same compound?
**A.** 3 n

**Q.** And the “patients with alterations in neutrophil count” value ([1]; olaparib + PLD, all cohorts)?
**A.** 30%

**Q.** And the “Grade ⩾3 haematologic alterations: haemoglobin” value [1, 11]?
**A.** 5%

**Q.** And the “Grade ⩾3 haematologic alterations: white blood cells” value [1, 11]?
**A.** 5%

**Q.** What about the “Grade ⩾3 haematologic alterations: platelets” value ([1]; olaparib + PLD, all cohorts (n=3)) of the same compound?
**A.** 7%

**Q.** What about the “alterations in neutrophil count reported as AEs” value [1, 12] of the same compound?
**A.** 13 n

**Q.** What about the “overall incidence of CTCAE grade ⩾3 events” value [1, 12] of the same compound?
**A.** 61%

**Q.** And the “patients discontinued/withdrawn because of treatment-related AEs” value [1, 12]?
**A.** seven

**Q.** What about the “patients who died during the study” value [1, 12] of the same compound?
**A.** Five

**Q.** And the “patients with treatment-related serious AEs” value [1, 12]?
**A.** five

**Q.** And the “patients with serious AEs” value ([1]; olaparib + PLD, all cohorts, n=44 (12 patients))?
**A.** 27%

**Q.** What about the “patients with serious AEs of pneumonitis” value ([1]; olaparib + PLD, 100 mg 28-day, 200 mg 28-day and 400 mg 7-day cohorts) of the same compound?
**A.** three

**Q.** And the “MTD of olaparib with PLD” value ([1]; up to continuous olaparib 400 mg bid + PLD 40 mg m^−2)?
**A.** not reached; also recorded: could not be determined

**Q.** And the “recommended dose of the olaparib tablet formulation” value [2]?
**A.** 300 mg bid
